Test results: patent US20220389009A1, “SUBSTITUTED 1,6-NAPHTHYRIDINE INHIBITORS OF CDK5” (Goldfinch Bio, Inc., priority 2019, published 2022)

Legend:
[1] = molecular target: CDK5/p25 (Homo sapiens, UniProt Q00535); assay: CDK5 mobility shift assay (enzymatic activity of CDK5/p25); type: biochemical; conditions: for IC50: 0.154 nM CDK5/p25, FL peptide 29, 60 min at room temperature, read-out: CDK5 IC50; for CDK5/CDK2 specificity: fold more active against CDK5 than CDK2
Description: (§1) Compound potency was measured via a change in the enzymatic activity of CDK5/p25, and optionally of CDK2/CycA2. Enzymes, CDK5/p25 and CDK2/CycA2, were sourced from Carna Biosciences (Cat #04-106 and 04-103, respectively). Test compound stocks were diluted in 100% DMSO and serially diluted 3-fold in a 384-well plate using a TECAN EVO200 (TECAN). Staurosporine was used as a reference control compound in all assays.
(§2) Twenty nL of compound were transferred into a 384-well plate (Greiner 781201) using an Echo550 (Labcyte Inc). Enzyme, ATP, and 10 mM MgCl2 were preincubated at room temperature with the compound in assay buffer (50 mM HEPES pH 7.5, 1 mM EGTA, 0.01% Brij-35, 0.05% BSA, 2 mM DTT) for 30 minutes. Peptide substrate (FL peptide 29 (Perkin Elmer) for CDK5/p25; FL Peptide 18 (Perkin Elmer) for CDK2/CycA2) was added to initiate the reaction. The final assay contained 0.154 nM CDK5/p25 or 1.25 nM CDK2/CycA2, […] (for CDK5/p25) or 37 μM (for CDK2/CycA2) ATP, and 1.5 μM of the appropriate peptide substrate. The final DMSO concentration was <1%.
(§3) The CDK5/p25 reaction was incubated at room temperature for 60 min. The CDK2/CycA2 reaction was incubated at room temperature for 120 min. The reactions were quenched by the addition of 70 μL stopping buffer containing 0.5 M EDTA. Samples were analyzed using the EZ Reader (Perkin Elmer).
(§4) The results were expressed as % vehicle, where % vehicle=100×(U−C2)/(C1−C2), where U is the signal of sample, C1 is the average of the high controls (signal with no compound added), and C2 is the average of low controls (signal with the buffer in place of enzyme). The ICso is determined by fitting the percentage of inhibition as a function of compound concentrations using a 4-parameter fit defined as follows.
(§5) Y=Bottom+(Top−Bottom)/(1+10^((LobIC50-X)*Hill Slope)), where X is the log of the compound concentration, Y is the % vehicle or response at X, Top and Bottom are the plateaus in the same units as Y, and the Hill's Slope is unitless, and the ICso is the half-maximal inhibitory concentration.

[2] = molecular target: CDK2/CycA2 (Homo sapiens, UniProt P24941); assay: CDK2 mobility shift assay (enzymatic activity of CDK2/CycA2); type: biochemical; conditions: 1.25 nM CDK2/CycA2, 37 μM ATP, FL Peptide 18, 120 min at room temperature; read-out: CDK2 IC50
Description: as §1, §2, §3, §4, §5

CDK5/p25, sequence (Q00535 whole entry): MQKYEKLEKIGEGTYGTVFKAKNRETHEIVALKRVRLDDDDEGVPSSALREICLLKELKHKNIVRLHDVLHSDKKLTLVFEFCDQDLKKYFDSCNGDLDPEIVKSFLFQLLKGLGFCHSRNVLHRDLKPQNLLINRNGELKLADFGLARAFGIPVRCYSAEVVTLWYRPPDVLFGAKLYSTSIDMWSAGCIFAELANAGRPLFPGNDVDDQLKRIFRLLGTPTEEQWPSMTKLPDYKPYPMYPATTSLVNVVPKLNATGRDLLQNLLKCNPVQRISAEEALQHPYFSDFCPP
CDK5/p25, sequence (Q15078 99-307 partner limits assumed): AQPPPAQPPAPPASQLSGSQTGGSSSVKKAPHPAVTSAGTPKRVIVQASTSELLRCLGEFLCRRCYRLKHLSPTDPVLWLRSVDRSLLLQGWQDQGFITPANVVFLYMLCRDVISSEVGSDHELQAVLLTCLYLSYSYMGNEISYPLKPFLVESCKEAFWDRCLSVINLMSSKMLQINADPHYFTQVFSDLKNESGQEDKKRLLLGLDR

SMILES	IC50 [1]	CDK5/CDK2 specificity [1]	IC50 [2]
CN1CCC(S(=O)(=O)c2ccc3cnc(Nc4cnc5ccc(Cl)nn45)cc3n2)CC1 [Compound 286]	> 1 µM	+ (10-fold or less more active against CDK5 than CDK2)	> 1 µM
Cc1cc(OCCC(N)=O)ccc1Nc1cc2nc(S(=O)(=O)C3CCN(C)CC3)ccc2cn1 [Compound 258]	< 0.01 µM	+++ (greater than 100-fold more active against CDK5 than CDK2)	> 1 µM
CC(C)(O)c1ccn(-c2ccc(Nc3cc4nc(S(=O)(=O)C5CCN(CC6COC6)CC5)ccc4cn3)c(F)c2)n1 [Compound 340]	0.01 to 0.1 µM	++ (greater than 10-fold and less than or equal to 100-fold more active against CDK5 than CDK2)	> 1 µM
CN1CCC(C(C)(O)c2ccc3cnc(Nc4ccc(-c5cccc(C#N)c5)cc4F)cc3n2)CC1 (stereo not drawn) [Compound 335]	< 0.01 µM	++ (greater than 10-fold and less than or equal to 100-fold more active against CDK5 than CDK2)	0.01 to 0.1 µM
CN1CCC(C(C)(O)c2ccc3cnc(Nc4ccc(-c5cccn(C)c5=O)cc4F)cc3n2)CC1 (stereo not drawn) [Compound 352]	< 0.01 µM	+++ (greater than 100-fold more active against CDK5 than CDK2)	0.1 to 1 µM
CN1CCC(S(=O)(=O)c2ccc3cnc(Nc4cccc(N5CCCC5=O)c4)cc3n2)CC1 [Compound 281]	< 0.01 µM	++ (greater than 10-fold and less than or equal to 100-fold more active against CDK5 than CDK2)	0.1 to 1 µM
Fc1cc(-n2cccn2)ccc1Nc1cc2nc(C=C3CCNCC3)ccc2cn1 [Compound 130, N-[2-fluoro-4-(pyrazol-1-yl)phenyl]-2-(piperidin-4-ylidenemethyl)-1,6-naphthyridin-7-amine]	0.01 to 0.1 µM	++ (greater than 10-fold and less than or equal to 100-fold more active against CDK5 than CDK2)	> 1 µM
CN1CCC(S(=O)(=O)c2ccc3cnc(Nc4cccc(N5CCNC5=O)c4)cc3n2)CC1 [Compound 285]	< 0.01 µM	++ (greater than 10-fold and less than or equal to 100-fold more active against CDK5 than CDK2)	0.01 to 0.1 µM
CN1CCC(C(C)(O)c2ccc3cnc(Nc4ccc(-n5cccn5)cc4F)cc3n2)CC1 (single isomer, unassigned) [Compound 216, 1-(7-[[2-fluoro-4-(pyrazol-1-yl)phenyl]amino]-1,6-naphthyridin-2-yl)-1-(1-methylpiperidin-4-yl)ethanol]	< 0.01 µM	++ (greater than 10-fold and less than or equal to 100-fold more active against CDK5 than CDK2)	0.01 to 0.1 µM
CN1CCC(C(C)(O)c2ccc3cnc(Nc4ccc(CN5CCOCC5)cc4F)cc3n2)CC1 (stereo not drawn) [Compound 353]	< 0.01 µM	++ (greater than 10-fold and less than or equal to 100-fold more active against CDK5 than CDK2)	0.01 to 0.1 µM
CN1CCC(S(=O)(=O)c2ccc3cnc(Nc4ccc5oc(=O)ccc5c4)cc3n2)CC1 [Compound 272]	< 0.01 µM	++ (greater than 10-fold and less than or equal to 100-fold more active against CDK5 than CDK2)	0.1 to 1 µM
CN1CCC(=Cc2ccc3cnc(Nc4ccc(-n5ccc(CO)n5)cc4F)cc3n2)CC1 [Compound 150, [1-[3-fluoro-4-([2-[(1-methylpiperidin-4-ylidene)methyl]-1,6-naphthyridin-7-yl]amino)phenyl]pyrazol-3-yl]methanol]	0.01 to 0.1 µM	++ (greater than 10-fold and less than or equal to 100-fold more active against CDK5 than CDK2)	> 1 µM
CN1CCC(S(=O)(=O)c2ccc3cnc(Nc4ccc(-n5cncn5)cc4)cc3n2)CC1 [Compound 279]	< 0.01 µM	++ (greater than 10-fold and less than or equal to 100-fold more active against CDK5 than CDK2)	0.1 to 1 µM
CN1CCC(C(O)(c2ccc3cnc(Nc4ccc(-n5cccn5)cc4F)cc3n2)C(F)(F)F)CC1 (single isomer, unassigned) [Compound 349, 2,2,2-trifluoro-1-(7-((2-fluoro-4-(1H-pyrazol-1-yl)phenyl)amino)-1,6-naphthyridin-2-yl)-1-(1-methylpiperidin-4-yl)ethan-1-ol]	< 0.01 µM	++ (greater than 10-fold and less than or equal to 100-fold more active against CDK5 than CDK2)	0.01 to 0.1 µM
CN1CCC(S(=O)(=O)c2ccc3cnc(Nc4ccccc4F)cc3n2)CC1 [Compound 299]	< 0.01 µM	++ (greater than 10-fold and less than or equal to 100-fold more active against CDK5 than CDK2)	0.1 to 1 µM
OCc1ccn(-c2ccc(Nc3cc4nc(C(CO)C5CCNCC5)ccc4cn3)c(F)c2)n1 (stereo not drawn) [Compound 142]	0.1 to 1 µM	+ (10-fold or less more active against CDK5 than CDK2)	> 1 µM
CN1CCC(C(C)(O)c2ccc3cnc(Nc4ccc(-c5ccc(=O)n(C)c5)cc4F)cc3n2)CC1 (stereo not drawn) [Compound 351]	< 0.01 µM	++ (greater than 10-fold and less than or equal to 100-fold more active against CDK5 than CDK2)	0.01 to 0.1 µM
Fc1cc(-n2cccn2)ccc1Nc1cc2nc(CC3CCNCC3)ccc2cn1 [Compound 124, N-[2-fluoro-4-(pyrazol-1-yl)phenyl]-2-(piperidin-4-ylmethyl)-1,6-naphthyridin-7-amine]	0.01 to 0.1 µM	++ (greater than 10-fold and less than or equal to 100-fold more active against CDK5 than CDK2)	0.1 to 1 µM
COc1cc(-c2ccc(Nc3cc4nc(C(C)(O)C5CCN(C)CC5)ccc4cn3)c(F)c2)ccn1 (stereo not drawn) [Compound 330]	> 1 µM	++ (greater than 10-fold and less than or equal to 100-fold more active against CDK5 than CDK2)	> 1 µM
CN1CCC(C(C)(O)c2ccc3cnc(Nc4ccc(-c5cccc(=O)n5C)cc4F)cc3n2)CC1 (stereo not drawn) [Compound 354]	< 0.01 µM	++ (greater than 10-fold and less than or equal to 100-fold more active against CDK5 than CDK2)	0.01 to 0.1 µM
CN1CCC(S(=O)(=O)c2ccc3cnc(Nc4ccc5c(c4)C(=O)N(C)C5)cc3n2)CC1 [Compound 275]	0.01 to 0.1 µM	++ (greater than 10-fold and less than or equal to 100-fold more active against CDK5 than CDK2)	0.1 to 1 µM
CN1CCC(/C(=N/O)c2ccc3cnc(Nc4ccc(-n5cccn5)cc4F)cc3n2)CC1 [Compound 381]	0.01 to 0.1 µM	+ (10-fold or less more active against CDK5 than CDK2)	0.1 to 1 µM
CN1CCC(N(Cc2cn[nH]c2)c2ccc3cnc(Nc4ccc(-n5ccc(CO)n5)cc4F)cc3n2)CC1 [Compound 309, [1-[3-fluoro-4-([2-[(1-methylpiperidin-4-yl) (1H-pyrazol-4-ylmethyl)amino]-1,6-naphthyridin-7-yl]amino)phenyl]pyrazol-3-yl]methanol]	0.01 to 0.1 µM	++ (greater than 10-fold and less than or equal to 100-fold more active against CDK5 than CDK2)	> 1 µM
CNC(=O)c1ccn(-c2ccc(Nc3cc4nc(S(=O)(=O)C5CCN(CC6COC6)CC5)ccc4cn3)c(F)c2)n1 [Compound 334]	< 0.01 µM	++ (greater than 10-fold and less than or equal to 100-fold more active against CDK5 than CDK2)	0.1 to 1 µM
OCCN(c1ccc2cnc(Nc3ccc(-n4ccc(CO)n4)cc3F)cc2n1)C1CCNCC1 [Compound 105, 2-[[7-([2-fluoro-4-[3-(hydroxymethyl)pyrazol-1-yl]phenyl]amino)-1,6-naphthyridin-2-yl](piperidin-4-yl)amino]ethanol]	0.01 to 0.1 µM	++ (greater than 10-fold and less than or equal to 100-fold more active against CDK5 than CDK2)	0.1 to 1 µM
CC(c1ccc2cnc(Nc3ccc(-c4cccc(C(N)=O)c4)cc3F)cc2n1)C1CCN(C)CC1 (stereo not drawn) [Compound 410, 3′-fluoro-4′-([2-[1-(1-methylpiperidin-4-yl)ethyl]-1,6-naphthyridin-7-yl]amino)-[1,1′-biphenyl]-3-carboxamide]	< 0.01 µM	+++ (greater than 100-fold more active against CDK5 than CDK2)	0.1 to 1 µM
